# Source: article PMC12062745, “The immunostimulatory activity of Epimedium flavonoids involves toll-like receptor 7/8” (Frontiers in Pharmacology, 2025)
# What was measured:
# Assay in all cases: SPR (Biacore S200)
# Assay type in all cases: binding
# [1] = target: T1, recombinant mouse TLR8 (Mus musculus, UniProt P58682); details: read-out: KD8
# T1 construct: recombinant from Escherichia coli supernatant
# T1 sequence (P58682 24-1032): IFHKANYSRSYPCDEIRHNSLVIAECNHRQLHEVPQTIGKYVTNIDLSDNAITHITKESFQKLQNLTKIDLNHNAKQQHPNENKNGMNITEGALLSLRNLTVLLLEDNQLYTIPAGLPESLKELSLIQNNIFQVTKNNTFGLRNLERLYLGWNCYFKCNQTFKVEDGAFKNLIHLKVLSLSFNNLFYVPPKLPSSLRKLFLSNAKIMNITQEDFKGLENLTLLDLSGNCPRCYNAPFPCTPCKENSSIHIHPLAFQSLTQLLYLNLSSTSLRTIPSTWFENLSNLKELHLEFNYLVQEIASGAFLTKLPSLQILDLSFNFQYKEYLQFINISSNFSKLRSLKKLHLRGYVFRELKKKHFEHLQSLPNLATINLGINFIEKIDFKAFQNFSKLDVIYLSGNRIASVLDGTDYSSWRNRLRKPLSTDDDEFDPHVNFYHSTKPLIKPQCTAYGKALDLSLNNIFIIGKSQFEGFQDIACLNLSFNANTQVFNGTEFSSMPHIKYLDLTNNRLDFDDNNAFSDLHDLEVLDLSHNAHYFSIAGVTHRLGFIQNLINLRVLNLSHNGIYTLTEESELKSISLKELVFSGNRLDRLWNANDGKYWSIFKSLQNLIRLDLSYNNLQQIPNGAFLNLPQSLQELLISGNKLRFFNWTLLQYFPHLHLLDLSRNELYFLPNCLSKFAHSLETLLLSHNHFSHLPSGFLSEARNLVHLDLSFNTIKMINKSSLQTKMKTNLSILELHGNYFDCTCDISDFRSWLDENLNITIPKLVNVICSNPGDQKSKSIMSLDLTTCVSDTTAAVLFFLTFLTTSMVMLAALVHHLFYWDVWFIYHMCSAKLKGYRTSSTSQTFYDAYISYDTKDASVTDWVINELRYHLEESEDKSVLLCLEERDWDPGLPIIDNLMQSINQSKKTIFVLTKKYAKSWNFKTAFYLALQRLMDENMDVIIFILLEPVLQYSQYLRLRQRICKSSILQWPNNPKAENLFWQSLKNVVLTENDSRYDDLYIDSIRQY
# [2] = target: T2, recombinant mouse TLR7 (Mus musculus, UniProt P58681); details: 80 μM compound
# T2 construct: recombinant from Escherichia coli supernatant
# T2 sequence (P58681 27-1050): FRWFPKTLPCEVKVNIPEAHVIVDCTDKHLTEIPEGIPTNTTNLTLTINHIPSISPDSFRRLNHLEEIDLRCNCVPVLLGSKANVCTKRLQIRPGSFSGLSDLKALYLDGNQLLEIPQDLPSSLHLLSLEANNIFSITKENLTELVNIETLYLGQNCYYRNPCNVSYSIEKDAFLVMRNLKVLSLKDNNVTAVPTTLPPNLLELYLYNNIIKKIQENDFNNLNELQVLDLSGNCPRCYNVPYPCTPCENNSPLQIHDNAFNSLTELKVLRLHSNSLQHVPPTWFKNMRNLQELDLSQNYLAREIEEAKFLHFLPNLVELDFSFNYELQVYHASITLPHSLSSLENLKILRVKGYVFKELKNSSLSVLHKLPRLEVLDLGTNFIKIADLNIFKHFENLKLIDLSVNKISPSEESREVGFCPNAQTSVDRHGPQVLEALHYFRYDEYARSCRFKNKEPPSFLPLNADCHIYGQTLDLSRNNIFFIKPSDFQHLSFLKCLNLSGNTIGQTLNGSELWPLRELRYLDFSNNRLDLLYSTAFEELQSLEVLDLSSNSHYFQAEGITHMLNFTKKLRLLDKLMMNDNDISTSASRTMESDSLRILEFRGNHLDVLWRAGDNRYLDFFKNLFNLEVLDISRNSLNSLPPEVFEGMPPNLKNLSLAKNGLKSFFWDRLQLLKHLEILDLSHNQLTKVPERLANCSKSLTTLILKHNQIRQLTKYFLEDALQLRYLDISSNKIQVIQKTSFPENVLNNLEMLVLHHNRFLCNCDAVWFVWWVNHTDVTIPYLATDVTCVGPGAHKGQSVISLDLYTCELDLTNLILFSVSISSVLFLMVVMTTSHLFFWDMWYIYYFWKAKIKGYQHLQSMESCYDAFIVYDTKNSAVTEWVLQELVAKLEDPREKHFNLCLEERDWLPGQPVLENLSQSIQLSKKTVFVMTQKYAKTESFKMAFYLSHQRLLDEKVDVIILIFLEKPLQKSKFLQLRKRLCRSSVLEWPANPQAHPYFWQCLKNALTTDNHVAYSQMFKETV
# [3] = target: T1, recombinant mouse TLR8; details: 80 μM compound
SMILES,Kd [1],SPR (Biacore S200) [2],response value (RU) [3]
COc1ccc(-c2oc3c(CC=C(C)C)c(O)cc(O)c3c(=O)c2O[C@@H]2O[C@@H](C)[C@H](O)[C@@H](O)[C@H]2O)cc1 [icariin II],10.3 µM,SPR analysis revealed that icariin II exhibited the highest binding response to TLR7,
COc1ccc(-c2oc3c(CC=C(C)C)c(O[C@@H]4O[C@H](CO)[C@@H](O)[C@H](O)[C@H]4O)cc(O)c3c(=O)c2O)cc1 [icariin I],,,43 RU
